From US20230242474A1, “LIPID COMPOUND AND THE COMPOSITION THEREOF” (GUANGZHOU RIBOBIO CO., LTD, priority 2020, published 2023)
Several values for one entry are separate records, joined by “and”; a condition that tells them apart may be missing. Equal values may be shown once.

tested on: T lymphocytes secreting INFγ; test: ELISPOT count of T lymphocytes secreting INFγ after immunization with LNP-encapsulated SARS-CoV-2 S protein mRNA; type: in vivo, BALB/c mice; conditions: S protein (1 μg) stimulation; dose 4 μg, intramuscular Day 0 and Day 14, spleens after 7 days

Row | Compound | Elispot counted T lymphocytes secreting INFγ
1 | CCCCCCCCCCCOC(=O)CCCCCN(CCO)CCCCCCCC(=O)OC(CCCCCCCC)CCCCCCCC [A33, reference compound] | 32 and 42

same assay, conditions: S protein (1 μg) stimulation; dose 50 μg, intramuscular Day 0 and Day 14, spleens after 7 days

Row | Compound | Elispot counted T lymphocytes secreting INFγ
2 | CCCCC/C=C/C/C=C/CCCCCCCCN(CCCO)CCCCCCCC(=O)OC(CCCCCCCC)CCCCCCCC [A7] | 805 and 700
3 | CCCCCCCCCCCOC(=O)CCCCCN(CCO)CCCCCCCC(=O)OC(CCCCCCCC)CCCCCCCC [A33, reference compound] | 310 and 338

tested on: BALB/c mice; test: Transfection efficiency: in vivo bioluminescence of luciferase mRNA encapsulated by different LNP; conditions: 10 μg/mice, 3 h after administration
Procedure: All animals were kept in adaptive feeding for more than 7 days before experiments, free to uptake food and drink water during experimental period, illumination 12/12 h alternating light and dark, room temperature was 20-26° C., humidity was 40-70%.
Experimental method: female BALB/c mice, encapsulated luciferase mRNA with different LNP by four different administrations which included subcutaneous injection (under the armpit), tail vein injection, intraperitoneal injection, intramuscular injection (the tibialis anterior muscle of mouse hind leg); 3, 6, 24, 48 h after administration, applied in vivo fluorescence imaging system (brand: Bruker, model: XTREME) for bioluminescence detection, the specific steps were as follows: substrate preparation: took appropriate amount of substrate Luciferin (brand: Promega) and added saline to make a 10 mg/ml solution, avoided light, injected 100 μl solution into each mouse intraperitoneally. […] Put the anesthetized mouse into machine, set the bioluminescence setting and took the photos, captured the photograph and then adjusted the upper and lower values of photograph, then collected data on the concentrated distribution of fluorescence (e.g., fluorescence intensity, average photons number, and total photons number) and processed data. Statistical analysis: the in vivo imaging outcome were shown in the fluorescence intensity or average of total photons number of different animal in the same tested group, which were used to judge whether the fluorescence intensity or total photon number of luciferase mRNA encapsulated by different LNP were high or low.
The fluorescence intensity and total photons number reflects the transfection efficiency of LNP, the value is higher, referring to the efficiency of delivering encapsulated substance into cell by LNP is higher.

Row | Compound | Average fluorescence intensity, Leg (intramuscular injection) | Average fluorescence intensity, Liver (tail vein injection)
4 | CCCCC/C=C/C/C=C/CCCCCCCCN(CCCO)CCCCCCCC(=O)OC(CCCCCCCC)CCCCCCCC [A7] | 1683.2 | 21013.1
5 | CCCCCCCCCCCOC(=O)CCCCCN(CCO)CCCCCCCC(=O)OC(CCCCCCCC)CCCCCCCC [A33, reference compound] | 1065.5 | 2841.8

same assay, conditions: 10 μg/mice, 6 h after administration

Row | Compound | Average fluorescence intensity, Leg (intramuscular injection) | Average fluorescence intensity, Liver (tail vein injection)
6 | CCCCC/C=C/C/C=C/CCCCCCCCN(CCCO)CCCCCCCC(=O)OC(CCCCCCCC)CCCCCCCC [A7] | 2990.1 | 21315.5
7 | CCCCCCCCCCCOC(=O)CCCCCN(CCO)CCCCCCCC(=O)OC(CCCCCCCC)CCCCCCCC [A33, reference compound] | 1117.9 | 3144.6

same assay, conditions: 10 μg/mice, 24 h after administration

Row | Compound | Average fluorescence intensity, Leg (intramuscular injection) | Average fluorescence intensity, Liver (tail vein injection)
8 | CCCCC/C=C/C/C=C/CCCCCCCCN(CCCO)CCCCCCCC(=O)OC(CCCCCCCC)CCCCCCCC [A7] | 1436.4 | 444.2
9 | CCCCCCCCCCCOC(=O)CCCCCN(CCO)CCCCCCCC(=O)OC(CCCCCCCC)CCCCCCCC [A33, reference compound] | 418.8 | 100.0

same assay, conditions: intramuscular injection, 1 μg/ mice, 3 h

Row | Compound | Total photons number, Leg
10 | CCCCCCCCCCCOC(=O)CCCCCN(CCCCCCCC(=O)OC(COCCCCCC)COCCCCCC)CCCNc1c(NC)c(=O)c1=O [A27] | 1.34E+09
11 | CCCCCCOCC(COCCCCCC)OC(=O)CCCCCCCN(CCCCCCCC(=O)OC(COCCCCCC)COCCCCCC)CCCNc1c(NC)c(=O)c1=O [A28] | 6.50E+08
12 | CCCCCCCCCCCOC(=O)CCCCCN(CCO)CCCCCCCC(=O)OC(CCCCCCCC)CCCCCCCC [A33, reference compound] | 1.41E+08
13 | CCCCC/C=C\C/C=C\CCCCCCCCC(CCCCCCCC/C=C\C/C=C\CCCCC)OC(=O)CCCN(C)C [MC3, reference compound] | 3.43E+08

same assay, conditions: intramuscular injection, 1 μg/ mice, 6 h

Row | Compound | Total photons number, Leg
14 | CCCCCCCCCCCOC(=O)CCCCCN(CCCCCCCC(=O)OC(COCCCCCC)COCCCCCC)CCCNc1c(NC)c(=O)c1=O [A27] | 1.04E+09
15 | CCCCCCOCC(COCCCCCC)OC(=O)CCCCCCCN(CCCCCCCC(=O)OC(COCCCCCC)COCCCCCC)CCCNc1c(NC)c(=O)c1=O [A28] | 4.26E+08
16 | CCCCCCCCCCCOC(=O)CCCCCN(CCO)CCCCCCCC(=O)OC(CCCCCCCC)CCCCCCCC [A33, reference compound] | 2.35E+08
17 | CCCCC/C=C\C/C=C\CCCCCCCCC(CCCCCCCC/C=C\C/C=C\CCCCC)OC(=O)CCCN(C)C [MC3, reference compound] | 7.41E+08

same assay, conditions: intramuscular injection, 1 μg/ mice, 24 h

Row | Compound | Total photons number, Leg
18 | CCCCCCCCCCCOC(=O)CCCCCN(CCCCCCCC(=O)OC(COCCCCCC)COCCCCCC)CCCNc1c(NC)c(=O)c1=O [A27] | 3.41E+08
19 | CCCCCCOCC(COCCCCCC)OC(=O)CCCCCCCN(CCCCCCCC(=O)OC(COCCCCCC)COCCCCCC)CCCNc1c(NC)c(=O)c1=O [A28] | 1.83E+08
20 | CCCCCCCCCCCOC(=O)CCCCCN(CCO)CCCCCCCC(=O)OC(CCCCCCCC)CCCCCCCC [A33, reference compound] | 5.84E+07
21 | CCCCC/C=C\C/C=C\CCCCCCCCC(CCCCCCCC/C=C\C/C=C\CCCCC)OC(=O)CCCN(C)C [MC3, reference compound] | 2.86E+08

same assay, conditions: intramuscular injection, 5 μg/mice, 3 h

Row | Compound | Total photons number, Leg
22 | CCCCCCCCCCCOC(=O)CCCCCN(CCO)CCCCCCCC(=O)OC(CCCCCCCC)CCCCCCCC [A33, reference compound] | 5.20E+08

same assay, conditions: intramuscular injection, 5 μg/mice, 6 h

Row | Compound | Total photons number, Leg
23 | CCCCCCCCCCCOC(=O)CCCCCN(CCO)CCCCCCCC(=O)OC(CCCCCCCC)CCCCCCCC [A33, reference compound] | 4.62E+08

same assay, conditions: intramuscular injection, 5 μg/mice, 24 h

Row | Compound | Total photons number, Leg
24 | CCCCCCCCCCCOC(=O)CCCCCN(CCO)CCCCCCCC(=O)OC(CCCCCCCC)CCCCCCCC [A33, reference compound] | 1.63E+08

tested on: not given; test: not given; type: physicochemical; conditions: LNP with SARS-CoV-2 S protein mRNA, Table 9

Row | Compound | Encapsulated percentage (%) | PI | Size (nm)
25 | CCCCC/C=C/C/C=C/CCCCCCCCN(CCCO)CCCCCCCC(=O)OC(CCCCCCCC)CCCCCCCC [A7] | 97 | 0.060 | 79
26 | CCCCCCCCCCCOC(=O)CCCCCN(CCO)CCCCCCCC(=O)OC(CCCCCCCC)CCCCCCCC [A33, reference compound] | 95 | 0.104 | 76

same assay, conditions: lipid nanoparticle of the ionizable lipid (ionizable lipid/phospholipid/PEG lipid/structural lipid 50/10/1.5/38.5 %) with mRNA, Table 1

Row | Compound | Size (nm)
27 | CCCCC/C=C/C/C=C/CCCCCCCCN(CCCO)CCCCCCCC(=O)OC(CCCCCCCC)CCCCCCCC [A7] | 105.1
28 | CCCCCCCCCCCOC(=O)CCCCCN(CCCCCCCC(=O)OC(COCCCCCC)COCCCCCC)CCCNc1c(NC)c(=O)c1=O [A27] | 94.16
29 | CCCCCCOCC(COCCCCCC)OC(=O)CCCCCCCN(CCCCCCCC(=O)OC(COCCCCCC)COCCCCCC)CCCNc1c(NC)c(=O)c1=O [A28] | 91.19
30 | CCCCC/C=C\C/C=C\CCCCCCCCC(CCCCCCCC/C=C\C/C=C\CCCCC)OC(=O)CCCN(C)C [MC3, reference compound] | 86.7

same assay, conditions: lipid nanoparticle of the ionizable lipid with mRNA, Table 1

Row | Compound | Encapsulated percentage (%) | PDI
31 | CCCCC/C=C/C/C=C/CCCCCCCCN(CCCO)CCCCCCCC(=O)OC(CCCCCCCC)CCCCCCCC [A7] | 94.63 | 0.175
32 | CCCCCCCCCCCOC(=O)CCCCCN(CCCCCCCC(=O)OC(COCCCCCC)COCCCCCC)CCCNc1c(NC)c(=O)c1=O [A27] | 96.69 | 0.13
33 | CCCCCCOCC(COCCCCCC)OC(=O)CCCCCCCN(CCCCCCCC(=O)OC(COCCCCCC)COCCCCCC)CCCNc1c(NC)c(=O)c1=O [A28] | 89.72 | 0.13
34 | CCCCC/C=C\C/C=C\CCCCCCCCC(CCCCCCCC/C=C\C/C=C\CCCCC)OC(=O)CCCN(C)C [MC3, reference compound] | 92.00 | 0.10

tested on: S protein specific IgG antibody; test: not given; type: in vivo, BALB/c mice; conditions: 14 days after the second immunization, LNP with S protein mRNA, FIG. 5

Row | Compound | S protein specific IgG antibody titer
35 | CCCCC/C=C/C/C=C/CCCCCCCCN(CCCO)CCCCCCCC(=O)OC(CCCCCCCC)CCCCCCCC [A7] | higher titers of IgG antibodies
36 | CCCCCCCCCCCOC(=O)CCCCCN(CCO)CCCCCCCC(=O)OC(CCCCCCCC)CCCCCCCC [A33, reference compound] | higher titers of IgG antibodies
